Measurements published in patent US11596622B2, “Mazindol treatment for heroin dependence and substance use disorder” (NLS Pharmaceutics AG, priority 2017, dated 2023).

Columns and labels:
[1] = test system: C57BL/6J mice; experiment: Effect of treatment on the conditioned place preference induced by heroin; assay type: in vivo; conditions: for Distance travelled in the drug-paired compartment / Distance travelled in the two compartments (Drug + Vehicle) / Distance travelled in the vehicle-paired compartment / Distance travelled, drug-paired minus vehicle-paired compartment / Time spent in the drug-paired compartment / Time spent in the vehicle-paired compartment / Time spent, drug-paired minus vehicle-paired compartment: mean
Source text: Conditioned place preference (CPP) is a widely used procedure for studying the potential addictive effect of drugs. CPP is based upon the tendency of rodents to approach a stimulus that has previously been paired with an incentive state induced by a drug. A drug that induces a CPP may be suspected to present reinforcing effects that could lead to addiction. Numerous addictive drugs, such as opiate agonists or stimulants induce a CPP and a behavioral sensitization.
The effect of mazindol on place preference was examined in C57BL/6J mice using a method similar to the one used by Schlussman et al. (9).
The third experiments consisted in examining the effects of mazindol and D-amphetamine (at doses chosen from results of the first part of the study) on the place preference induced by heroin at a dose chosen from results of the second experiment, which was 1.25 mg/kg. Mazindol (0.125, 0.25 and 0.5 mg/kg) and D-amphetamine (0.5 mg/kg) were tested.
Therefore, it was decided to perform an additional experiment to examine the effects on place preference induced by heroin of mazindol at 1 and 2 mg/kg and of D-amphetamine at 1 mg/kg.
(§1) Following the habituation session (on day 1), animals (N=72) were pseudo-randomly assigned to two groups, a Control group (N=12) and a Heroin group (N=60), in a way that there was no significant difference between the two groups for the total distance travelled in the apparatus and for the percentage of time spent and the percentage distance travelled in the grey compartment and in the striped compartment.
Animals received the following treatments immediately before drug sessions: • Control group: vehicle • Heroin group: heroin (1.25 mg/kg)
(§2) Following the last conditioning session, the Heroin group was pseudo-randomly divided into 5 groups (N=12/group) in a way that there was no significant difference between groups for the total distance travelled in the apparatus and for the percentage of time spent and the percentage distance travelled in the grey compartment and in the striped compartment in habituation session, for the distance travelled in the drug-paired and in the vehicle-paired compartments in conditioning sessions and for the proportion of striped drug-paired compartments.
Animals received the following treatments before preference session: • Control group: vehicle of mazindol, i.p. 60 min before testing. • Hero group: vehicle of mazindol, i.p. 60 min before testing. • Hero-A 0.5 group: D-amphetamine (0.5 mg/kg), i.p. 30 min before testing. • Hero-Mz 0.125 group: mazindol (0.125 mg/kg), i.p. 60 min before testing. • Hero-Mz 0.25 group: mazindol (0.25 mg/kg), i.p. 60 min before testing. • Hero-Mz 0.5 group: mazindol (0.5 mg/kg), i.p. 60 min before testing.
as §1, with “three” for “two”, “(N=12),” for “(N=12) and”, “(N=48) and a Mazindol group (N=12),” for “(N=60),”
Animals received the following treatments before drug sessions: • Control group: vehicle, i.p. immediately before session. • Heroin group: heroin (1.25 mg/kg), i.p. immediately before session. • MAZ 2 group: mazindol (2 mg/kg), i.p. 60 min before session.
as §2, with “into 4” for “into 5”, “there is” for “there was”, “compartments. […]” for “compartments.”

[2] = test system: Sprague-Dawley rats; experiment: Naloxone precipitated withdrawal syndrome of heroin; assay type: in vivo
Protocol: The abrupt cessation of chronic opiate use results in a well characterized withdrawal syndrome with symptoms that include pain sensitivity, dysphoria, irritability, restlessness, insomnia, diarrhea and hyperventilation. In the present model, the naloxone-precipitated withdrawal syndrome is measured in rodents. Animals are chronically treated with a drug, e.g. morphine or heroin. Opiate withdrawal syndrome is elicited by an acute injection of the opiate antagonist Naloxone.
The effect of mazindol on heroin withdrawal syndrome elicited by naloxone was examined in Sprague-Dawley rats using a method similar to the one used by Jiang et al. (10),
Animals were subdivided into two groups. One group received heroin two i.p. injections/day for 12 consecutive days and a single injection on the 13th day (total: 25 injections) as exposed in Table 3 group received saline instead of heroin following the same protocol.
On day 13, animals received treatments and were tested according to the following time schedule: • T=0: i.p. injection of heroin (15 mg/kg) or vehicle. • T=2.5 h: animals individually placed in a transparent Plexiglas observation boxes (40×40×40 cm). • T=3.5 h: i.p. injection of treatment (see below). • T=4 h: i.p. injection of naloxone (5 mg/kg), start of test: observation of withdrawal symptoms as indicated in Table 4. • T=5 h: end of test, animals placed back into their home cages.
Animals received the following treatments at T 3.5 h (i.e. 30 min before injection of naloxone and observation of symptoms): • 1) Animals treated with saline during the intoxication period (days 1-12) and at T0 on day 13: • Saline group (N=8): saline (0.9% NaCl). • 2) Animals treated with […] during the intoxication period (days 1-12) and at T0 on day 13: • Hero group (N=14): saline (0.9% NaCl). • Amph 1 group (N=4): D-amphetamine (1 mg/kg). • Maz 0.125 group (N=5): mazindol (0.125 mg/kg). • Maz 0.25 group (N=6): mazindol (0.25 mg/kg). • Maz 0.5 group (N=6): mazindol (0.5 mg/kg). • Maz 1 group (N=6): mazindol (1 mg/kg). • Maz 2 group (N=5): mazindol (2 mg/kg).
A weighting factor was ascribed for each sign from which a score was calculated.
Examples: • Body weight before naloxone injection=241 g; after naloxone injection=236 g: • Weight loss score=2=100×(241−236)/241 • Number of escape attempts=8: • Score for escape attempts=2 • Profuse salivation present: • Score for profuse salivation
A global withdrawal score was then calculated: • Global score=the sum of the scores

[3] = Hero-A 0.5: heroin 1.25 mg/kg conditioning, D-amphetamine 0.5 mg/kg i.p. 30 min before preference session
[4] = Hero-A 1: heroin 1.25 mg/kg conditioning, D-amphetamine 1 mg/kg i.p. 30 min before preference session
[5] = Amph 1: heroin-treated rats, D-amphetamine 1 mg/kg i.p. 30 min before naloxone 5 mg/kg, mean

C[C@H](N)Cc1ccccc1.C[C@H](N)Cc1ccccc1.O=S(=O)(O)O [D-amphetamine, D-amphetamine sulfate]
effect on the heroin-induced increase of distance travelled in the drug-paired compartment ([1]; D-amphetamine 0.5 mg/kg): had no effect
effect on the heroin-induced increase of time spent in the drug-paired compartment ([1]; D-amphetamine 0.5 mg/kg): non-significantly reduced
effect on the heroin-induced increases of time spent and distance travelled in the drug-paired compartment ([1]; D-amphetamine 1 mg/kg): did not modify
effect on the place preference induced by heroin ([1]; D-amphetamine 0.5, 1 mg/kg i.p. before preference session): do not show a reliable effect
total distance travelled in two compartments (FIG. 3) ([1]; D-amphetamine 0.5 and 1 mg/kg i.p. before preference session): at 0.5 mg/kg, but not at 1 mg/kg decreased the total distance travelled in two compartments
Distance travelled in the drug-paired compartment [1, 3]: 6797.2 cm
Distance travelled in the two compartments (Drug + Vehicle) [1, 3]: 11379.9 cm
Distance travelled in the vehicle-paired compartment [1, 3]: 4582.7 cm
Distance travelled, drug-paired minus vehicle-paired compartment [1, 3]: 2214.6 cm
Time spent in the drug-paired compartment [1, 3]: 984.5 s
Time spent in the vehicle-paired compartment [1, 3]: 815.5 s
Time spent, drug-paired minus vehicle-paired compartment [1, 3]: 168.9 s
Distance travelled in the drug-paired compartment [1, 4]: 7416.7 cm
Distance travelled in the two compartments (Drug + Vehicle) [1, 4]: 13005.6 cm
Distance travelled in the vehicle-paired compartment [1, 4]: 5588.9 cm
Distance travelled, drug-paired minus vehicle-paired compartment [1, 4]: 1827.8 cm
Time spent in the drug-paired compartment [1, 4]: 1048.3 s
Time spent in the vehicle-paired compartment [1, 4]: 751.7 s
Time spent, drug-paired minus vehicle-paired compartment [1, 4]: 296.5 s
Abdominal constrictions score (Abd C) [2, 5]: 0.0
Abnormal posture score (Ab P) [2, 5]: 0.0
Chromodacryorrhea score (Chr) [2, 5]: 5.0
Diarrhea score (Diarr) [2, 5]: 2.0
Erection or ejaculation score (Er Ej) [2, 5]: 0.0
Escape attempts score (Esc A) [2, 5]: 1.8
Facial fasciculation or teeth chattering score (F F T C) [2, 5]: 2.0
Global Score [2, 5]: 22.5
Irritability score (Irrit) [2, 5]: 0.0
Profuse salivation score (Pr Sal) [2, 5]: 5.3
Ptosis score (Ptos) [2, 5]: 0.0
Swallowing movements score (Sw M) [2, 5]: 1.0
Weight loss score (W Los) [2, 5]: 2.0
Wet dog shakes score (W D S) [2, 5]: 3.5
effect on naloxone precipitated withdrawal symptoms of heroin ([2]; D-amphetamine 1 mg/kg): did not reduce the withdrawal symptoms of heroin
effect on chromodacryorrhea ([2]; D-amphetamine 1 mg/kg, increase not significant): tended to increase
